Results from patent publication EP2401611B1, “IMPROVED METHODS FOR IDENTIFICATION” (Cambridge Enterprise Limited, priority 2009, dated 2010).

Tested on: TNF-alpha
Assay: Sub-lethal endotoxemia model (LPS challenge, serum TNF-alpha)
Assay type: in vivo, mouse
Details: very high / highest doses
Protocol: We selected the sub-lethal endotoxemia model in mouse, because this has been well characterised in our laboratory (see for example Fox et al. (2002) J. Med. Chem. 45:360-70; Fox et al. (2005) J. Med. Chem. 48:867-74). The extent of systemic inflammation in response to a single intraperitoneal injection of bacterial lipopolysaccharide (LPS) can be estimated by measuring serum TNF-alpha 2 hours post challenge.
Methods: Mice (CD1 strain; adult males; 6 per group) were treated with BSCI (in an appropriate vehicle) or with vehicle alone by an appropriate route. […] Simultaneously, one set of mice at each BSCI concentration received BIM 23627 at 4mg/animal (120mg/kg) by sub-cutaneous injection (a treatment condition known to suppress classical sstr2-mediated signalling, such as GH release, in rats; Tulipano et al. (2002) 143:1218-24). Between 30mins and 1hour after dosing (a period when a maximal plasma concentration of BSCI has been achieved), the inflammatory challenge was elicited by intraperitoneal injection of 750µg of LPS (Sigma; L4130 lot#024K4077; 900,000 EU/mg).
After a further 2 hours, the animals were sacrificed by CO2 asphyxiation, and blood was drawn by cardiac puncture. Serum was prepared by conventional methods, and the level of TNF-alpha in serum was measured using an ELISA (R&D Systems; Murine Quantikine code# MTA00) performed in accordance with the manufacturer's instructions.

C[C@@H]1C[C@H]2[C@@H]3CCC4=CC(=O)C=C[C@]4(C)[C@@]3(F)[C@@H](O)C[C@]2(C)[C@@]1(O)C(=O)CO [dexamethasone]
inhibition of TNF-alpha: more than 90%
